Our source for the TGI values is PubChem BioAssay (NCI).

Among the test systems are HCT-116 colon; OVCAR-4 ovarian; LOX IMVI melanoma; SK-OV-3 ovarian; SF-295 CNS; HOP-62 NSCLC; HCT-15 colon; COLO 205 colon; MDA-MB-231 breast; HT29 colon; PC-3 prostate; IGROV1 ovarian; NCI-H23 lung; MDA-MB-435; U251 CNS; MALME-3M melanoma; MOLT-4 leukemia; MCF7 breast; ACHN renal.
What all share (test): NCI anticancer screen, dose series, 48 h

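Tested at 5 concentrations; 48 h exposure; 96-well plates; endpoints linearly interpolated, else capped at highest concentration. The concentration for full growth arrest is given as TGI.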

With `Cc1ccc(CS(=O)(=O)C/N=c2\sc3ccccc3nc2/C=C(\O)c2ccc(Cl)cc2)cc1`, the TGI with HCT-116 colon, with OVCAR-4 ovarian, in the assay on LOX IMVI melanoma, with SK-OV-3 ovarian, with SF-295 CNS and in the assay with HOP-62 NSCLC was above 10 µM throughout. The TGI in the assay on HCT-15 colon, in the assay on COLO 205 colon, with MDA-MB-231 breast, in the assay on HT29 colon, with PC-3 prostate and in the assay on IGROV1 ovarian was above 10 µM throughout. In addition, the TGI with NCI-H23 lung, in the assay on MDA-MB-435, in the assay on U251 CNS, in the assay with MALME-3M melanoma, in the assay with MOLT-4 leukemia and in the assay with MCF7 breast was above 10 µM each time. In the assay on ACHN renal, this compound registered a TGI above 10 µM.

For `CCCC(=O)OC[n+]1cccc(-c2c(COC(=O)NC(C)C)c(COC(=O)NC(C)C)c3n2CCC3)c1`, the TGI in the assay on HCT-116 colon, in the assay on OVCAR-4 ovarian, with LOX IMVI melanoma, with SK-OV-3 ovarian, with SF-295 CNS and in the assay on HOP-62 NSCLC was above 100 µM throughout. Besides, the TGI with HCT-15 colon, in the assay on COLO 205 colon, with MDA-MB-231 breast, in the assay on HT29 colon, with PC-3 prostate and in the assay with IGROV1 ovarian was above 100 µM each time. For the same compound, the TGI in the assay on NCI-H23 lung is above 100 µM; in the assay on MDA-MB-435, above 100 µM; in the assay with U251 CNS, above 100 µM; in the assay on MALME-3M melanoma, above 100 µM; in the assay on MOLT-4 leukemia it was above 83.3 µM; in the assay on MCF7 breast, above 100 µM. The TGI in the assay with ACHN renal was above 100 µM.

Regarding `O=[N+]([O-])c1cccc2nc3ccccc3c(NCCCN3CCOCC3)c12`, the TGI was below 0.0298 µM with HCT-116 colon; 0.0494 µM in the assay on OVCAR-4 ovarian; 1.66 µM in the assay with LOX IMVI melanoma; 0.267 µM with SK-OV-3 ovarian; 0.0854 µM in the assay on SF-295 CNS; 0.0618 µM with HOP-62 NSCLC. Besides, the TGI in the assay with HCT-15 colon worked out at 0.0491 µM; with COLO 205 colon, 0.0303 µM; with MDA-MB-231 breast, 0.0973 µM; in the assay on HT29 colon, 0.0349 µM; in the assay with PC-3 prostate it was 0.0684 µM; with IGROV1 ovarian it was 0.084 µM. The TGI in the assay with NCI-H23 lung turned out to be 0.0418 µM; with MDA-MB-435, 0.0242 µM; in the assay with U251 CNS it was 0.14 µM; in the assay on MALME-3M melanoma, 0.026 µM; in the assay on MOLT-4 leukemia, 24.2 µM; in the assay with MCF7 breast, 0.103 µM. In the assay with ACHN renal, this compound displayed a TGI of 0.0506 µM.

For the compound `Cc1cc2c(cc1C)[n+](=O)c(C(=O)N1CCN(c3ccc([N+](=O)[O-])cc3)CC1)c(C)n2[O-]`, the TGI in the assay on HCT-116 colon was above 100 µM; in the assay with OVCAR-4 ovarian, above 100 µM; in the assay on LOX IMVI melanoma, above 100 µM; in the assay with SK-OV-3 ovarian it was 51.2 µM; in the assay with SF-295 CNS, 31.6 µM; with HOP-62 NSCLC, 29.4 µM. Further, the TGI in the assay with HCT-15 colon was above 100 µM; in the assay on COLO 205 colon, above 100 µM; with MDA-MB-231 breast, 55.5 µM; in the assay with HT29 colon, above 100 µM; with PC-3 prostate it was above 100 µM; in the assay with IGROV1 ovarian it was 87.7 µM. Moreover, the TGI with NCI-H23 lung was above 100 µM; in the assay with MDA-MB-435, above 100 µM; with U251 CNS it was 41.3 µM; in the assay with MALME-3M melanoma, above 100 µM; in the assay on MOLT-4 leukemia it was above 100 µM; in the assay on MCF7 breast, above 100 µM. Further, the TGI in the assay on ACHN renal came out at 12.7 µM.
